pEC50: −log10 of the molar value.

This assay addresses T1, hGPR120 (Homo sapiens, UniProt Q5NUL3).
T1 construct: expressed in transfected cells; host or cells: CHO-K1
T1 sequence (Q5NUL3 1-361): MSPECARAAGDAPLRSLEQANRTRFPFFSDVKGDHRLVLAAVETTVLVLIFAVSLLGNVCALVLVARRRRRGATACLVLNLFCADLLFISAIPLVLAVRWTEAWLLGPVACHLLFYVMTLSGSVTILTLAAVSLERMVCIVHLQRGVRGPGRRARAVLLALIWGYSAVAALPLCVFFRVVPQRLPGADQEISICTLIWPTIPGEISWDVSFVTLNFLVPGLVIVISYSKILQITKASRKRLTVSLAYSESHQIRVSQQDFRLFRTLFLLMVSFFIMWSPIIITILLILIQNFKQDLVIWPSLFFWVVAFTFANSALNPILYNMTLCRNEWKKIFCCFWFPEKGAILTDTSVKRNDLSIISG
The experiment in a line: Measurement of activity of GPR120 agonist (cell-based calcium fluorescence assay). Particulars: CHO-K1 cells expressing Ga16 and hGPR120, Calcium 5 dye fluorescence; activity class; read-out: EC50. As to the method:
CHO-K1 cells expressing Ga16 and hGPR120 were dispensed into each well of a 96-well plate (3×10^4 cells/100 μl/well) and then incubated in 5% CO2, 37° C. incubator for 18 hours. Each well was treated with 100 μl of Calcium 5 dye (Molecular Devices) solution including 2% DMSO and then incubated in 5% CO2, 37° C. incubator for 1 hour. Serially diluted GPR120 agonists were prepared to a final concentration of 0.5% DMSO in a 96-well plate.
Fluorescence increased by the serially diluted GPR120 agonists is calculated as a relative percent (%) value based on the fluorescence represented by the treatment of 1% DMSO only. […] The calculation of measurement was carried out by using statistical software (Prizm).
Activity is denoted based on the following criteria: […]
As to `CC(C)Oc1ccccc1-c1cc(F)c(OCCCC(=O)O)c(F)c1` [Example 52, 4-(3,5-difluoro-2′-isopropoxy-biphenyl-4-yloxy)-butyric acid], the pEC50 (in general, −log10 of the EC50, conventionally taken in molar units) is 5.70 to 6.70.

`O=C(O)CCCOc1c(F)cc(-c2ccccc2OC2CCC2)cc1F` [Example 53, 4-(2′-cyclobutoxy-3,5-difluoro-biphenyl-4-yloxy)-butyric acid]: the pEC50 is > 6.70.

For `O=C(O)CCCOc1c(F)cc(-c2ccccc2OCC2CC2)cc1F` [Example 54, 4-(2′-cyclopropylmethoxy-3,5-difluoro-biphenyl-4-yloxy)-butyric acid], the pEC50 was > 6.70.

Regarding `O=C(O)CCCOc1c(F)cc(-c2ccccc2OC2CCCC2)cc1F` [Example 55, 4-(2′-cyclopentyloxy-3,5-difluoro-biphenyl-4-yloxy)-butyric acid], the pEC50 was > 6.70.

On to `O=C(O)CCCOc1ccc(-c2ccccc2OC2CCCC2)cc1` [Example 56, 4-(2′-cyclopentyloxy-biphenyl-4-yloxy)-butyric acid], for which the pEC50 was 5.70 to 6.70.

In the case of `CC(C)Oc1ccccc1-c1ccc(OCCCC(=O)O)cc1` [Example 57, 4-(2′-isopropoxy-biphenyl-4-yloxy)-butyric acid], the pEC50 was 5.70 to 6.70.

As to `O=C(O)CCCOc1ccc(-c2ccccc2OCC2CC2)cc1` [Example 58, 4-(2′-cyclopropylmethoxy-biphenyl-4-yloxy)-butyric acid], the pEC50 is 5.70 to 6.70.

Take `CC(CCOc1c(F)cc(-c2cccnc2SC2CCC2)cc1F)C(=O)O` (stereo not drawn) [Example 59, 4-[4-(2-cyclobutylsulfanyl-pyridin-3-yl)-2,6-difluoro-phenoxy]-2-methyl-butyric acid]: the pEC50 is > 6.70.

With `O=C(O)C1CC1COc1c(F)cc(-c2cccnc2SC2CCC2)cc1F` (stereo not drawn) [Example 60, 2-[4-(2-cyclobutylsulfanyl-pyridin-3-yl)-2,6-difluoro-phenoxymethyl]-cyclopropanecarboxylic acid], the pEC50 is > 6.70.

Take `O=C(O)CCCOc1cc(F)c(-c2cccnc2SC2CCC2)cc1F` [Example 61, 4-[4-(2-cyclobutylsulfanyl-pyridin-3-yl)-2,5-difluoro-phenoxy]-butyric acid]: the pEC50 was 5.70 to 6.70.

Take `O=C(O)CCCOc1cc(F)c(-c2cccc(SC3CCC3)n2)cc1F` [Example 62, 4-[4-(6-cyclobutylsulfanyl-pyridin-2-yl)-2,5-difluoro-phenoxy]-butyric acid]: the pEC50 is 5.70 to 6.70.

Turning to `CC(C)(C)Sc1ncccc1-c1cc(F)c(OCCCC(=O)O)c(F)c1` [Example 63, 4-[4-(2-tert-butylsulfanyl-pyridin-3-yl)-2,6-difluoro-phenoxy]-butyric acid], the pEC50 was 4.70 to 5.70.

`CCCSc1ncccc1-c1cc(F)c(OCCCCCC(=O)O)c(F)c1` [Example 64, 6-[2,6-difluoro-4-(2-propylsulfanyl-3-pyridyl)phenoxy]hexanoic acid]: the pEC50 is > 6.70.

In the case of `CC(C)=Cc1cccc(-c2cc(F)c(OCCCC(=O)O)c(F)c2)n1` [Example 65, 4-{2,6-difluoro-4-[6-(2-methyl-propenyl)-pyridin-2-yl]-phenoxy}-butyric acid], the pEC50 is > 6.70.

Take `O=C(O)CCCOc1cc(F)c(-c2cccnc2SC2CCC2)c(F)c1` [Example 67, 4-[4-(2-cyclobutylsulfanyl-pyridin-3-yl)-3,5-difluoro-phenoxy]-butyric acid]: the pEC50 was 5.70 to 6.70.

Turning to `O=C(O)CCCOc1c(F)cc(-c2cccnc2OC2CCOCC2)cc1F` [Example 68, 4-{2,6-difluoro-4-[2-(tetrahydro-pyran-4-yloxy)-pyridin-3-yl]-phenoxy}-butyric acid], the pEC50 is 5.70 to 6.70.

Turning to `COCCOc1ncccc1-c1cc(F)c(OCCCC(=O)O)c(F)c1` [Example 71, 4-{2,6-difluoro-4-[2-(2-methoxy-ethoxy)-pyridin-3-yl]-phenoxy}-butyric acid], the pEC50 was 4.70 to 5.70.

Take `O=C(O)CCCOc1c(F)cc(-c2cccnc2N2CCCC2)cc1F` [Example 72, 4-[2,6-difluoro-4-(2-pyrrolidin-1-yl-3-pyridyl)phenoxy]butanoic Acid]: the pEC50 is 5.70 to 6.70.

Source of the values: patent US10221138B2, “Biaryl derivatives as GPR120 agonists” (LG CHEM, LTD., priority 2013, dated 2019).
